Broadly, the melting point is the temperature, or range, at which the solid turns liquid.

Our source for the melting point values is a melting point compilation (Tetko et al.).

The compound `CC1(C)CC(=O)C(=NNc2ccc(O)cc2)C(=O)C1` came in with a melting point of 206 °C.

For `O=C(O)c1cccc2c1C(=O)c1ccccc1-2`, the melting point is 194 to 198 °C.

For the compound `COC(=O)c1scc(S(=O)(=O)C(C)C)c1N`, the melting point was 139 to 143 °C.

In turn, `O=[N+]([O-])c1cc2c(cc1C/C(=N/Nc1ccccc1)c1ccccc1)n1n(-c3ccccc3)n21` yielded a melting point of 197 to 198 °C.

For the compound `COC1=CC(C)C2CC3OC(O)CC4C(C)=C(OC)C(=O)C(C2(C)C1=O)C34C` (configuration not stated), the melting point is 227 °C.

For `Fc1cc2c(cc1F)Oc1cc(Cl)c(Cl)cc1O2`, the melting point is 223 °C.

As for `CC1=C(C(=O)O)CCCO1`, the melting point was 119 °C.

In the case of `COc1ccc(-c2ccc(S(=O)(=O)NC(C)C(=O)O)cc2)cc1` (configuration not stated), the melting point came out at 179 °C.

`Oc1cc(Cl)cc(Cl)c1O`: the melting point worked out at 82.5 °C.

`OC(CCCc1ccccc1)c1ccccc1` (configuration not stated) showed a melting point of 47 °C.

In turn, `O=Nc1ccc(Nc2ccccc2)cc1` gave a melting point of 143 °C.

In turn, `COc1ccc(C(=O)c2cccc(Br)c2)cc1OC` registered a melting point of 97 °C.

Consider `Nc1ccc(Cn2cncn2)cc1`, for which the melting point is 124 to 126 °C.

Regarding `Clc1ccc2nc(Cl)sc2c1`, the melting point is 96 °C.

Regarding `N#Cc1nc[nH]c1C(N)=O`, the melting point was 276 to 278 °C.

`CCOC(=O)c1c(NC(=O)C(Cl)Cl)sc2c1CCCC2` had a melting point of 120 to 122 °C.

In the case of `C[Si](C)(C)OC1(C#Cc2ccccc2)Cc2ccccc21` (configuration not stated), the melting point was found to be 64 °C.

Take `CC12CCC(C1(C)C)C(CCCc1ccccc1)(C1(CCCc3ccccc3)C(=O)C3(C)CCC1C3(C)C)C2=O` (configuration not stated): the melting point was found to be 250 °C.

With `O=C(NCO)NS(=O)(=O)c1ccc(NC(=O)c2ccccc2C(=O)O)cc1`, the melting point turned out to be 162 °C.

Turning to `O=C(O)c1cccc(-c2cncnc2)c1`, the melting point was in the range of 244 to 245 °C.

For the compound `c1ccc(SCCSc2ccccc2)cc1`, the melting point came out at 69 °C.

Regarding `Cc1ccc(-c2c(C#N)c(=O)n3c(sc4ccccc43)c2C(N)=O)cc1`, the melting point turned out to be 199 °C.

`O=C(O)c1cscc1Sc1ccc(Cl)cc1`: the melting point lay in the range of 195 to 198 °C.

The compound `N#CCC(N)=C(C#N)C#N` had a melting point of 172 °C.

`NC(=O)/C(=C\c1ccccc1O)c1nc2ccccc2s1`: the melting point stood at 210 °C.

Compound `CC(COc1ccccc1)N(CCCl)Cc1ccccc1` (configuration not stated) registered a melting point of 39 °C.

Regarding `CC1CNC(C(O)(C2=NCC(C)N2)C2=NCC(C)N2)=N1` (configuration not stated), the melting point was in the range of 178 to 180 °C.

Regarding `O=C(Cl)c1cccc(S(=O)(=O)Cl)c1`, the melting point was 18 to 20 °C.

Regarding `ClCC(Br)CBr` (configuration not stated), the melting point turned out to be 6 °C.

The compound `COc1ccc(CBr)cc1C(F)(F)F` yielded a melting point of 77 °C.

`OC1C2COC(O2)C(O)C1O` (configuration not stated): the melting point was found to be 183 °C.

`O=C(Cl)c1ccc(-c2ccccc2)cc1` showed a melting point of 113 °C.

For `COCCOc1ccc(CCC(=O)O)cc1N`, the melting point fell in the range of 93.5 to 98 °C.

In turn, `O=S(=O)(Cl)c1cccc(Cl)c1Cl` registered a melting point of 61 to 63 °C.

Compound `NCc1ccc2occc2c1` registered a melting point of 32 to 34 °C.

The compound `C[Si]1(C)O[Si](C)(C)O[Si](C)(C)O[Si](C)(C)O[Si](C)(C)O[Si](C)(C)O[Si](C)(C)O[Si](C)(C)O1` gave a melting point of 31.5 °C.

Compound `CCC1NC(C(=O)O)CS1` (mixture of isomers) gave a melting point of 158 to 162 °C.

`CCCCOC(=O)C1=C(C)NC(=O)NC1c1ccc2c(c1)OCO2` (configuration not stated) gave a melting point of 143 °C.

Consider `Cc1nc2cc(Cl)ccc2o1`, for which the melting point was in the range of 54 to 57 °C.

On to `COc1ccc(C=CC(=O)Nc2ccccc2C(=O)O)cc1OC`, for which the melting point is 212 °C.

In turn, `COc1cc(CC(=O)O)ccc1Br` registered a melting point of 104 °C.

Compound `O=C1c2ccccc2CC2C=Cc3ccccc3N12` (configuration not stated) had a melting point of 91 °C.
